Values quoted from earlier work, collected in patent US20100112724A1, “METHOD OF DETERMINATION OF PROTEIN LIGAND BINDING AND OF THE MOST PROBABLE LIGAND POSE IN PROTEIN BINDING SITE” (priority 2007, published 2010).

Tested on: protein of the protein-ligand complex (pdb code)
Settings: experimentally known binding affinity of test and training protein-ligand complexes selected from PDB, structures described in publications [7, 8, 9]
For `O=C(O)C[C@@H](Cc1ccccc1)C(=O)O` [1CBX], the “ΔG, kcal/mol (free energy of ligand-protein binding)” value is listed as -8.7 kcal/mol. For `CCN(CC)C(=O)[C@@H]1OC(C(=O)O)=C[C@H](N)[C@H]1NC(C)=O` [2QWG], the “ΔG, kcal/mol (free energy of ligand-protein binding)” value is given as -11.5 kcal/mol. For `OC[C@H]1O[C@@H](O)[C@H](O)[C@@H](O)[C@H]1O` [9ABP], the “ΔG, kcal/mol (free energy of ligand-protein binding)” value is given as -10.7 kcal/mol. For `NCC1CCCCC1` [1TNG], the “ΔG, kcal/mol (free energy of ligand-protein binding)” value is given as -4 kcal/mol. For `OC[C@H]1O[C@H](O[C@H]2[C@H](O)[C@@H](O)[C@H](O)O[C@@H]2CO)[C@H](O)[C@@H](O)[C@@H]1O` [1ANF], the “ΔG, kcal/mol (free energy of ligand-protein binding)” value is listed as -7.3 kcal/mol. For `Nc1ccnc2c1ncn2[C@@H]1O[C@H](CO)[C@@H](O)[C@H]1O` [1ADD], the “ΔG, kcal/mol (free energy of ligand-protein binding)” value is given as -9.2 kcal/mol. For `N[C@H]1C[C@@H]1c1ccccc1` [1TNL], the “ΔG, kcal/mol (free energy of ligand-protein binding)” value is given as -2.6 kcal/mol. For `COc1cccc(N2CCc3cc(S(N)(=O)=O)sc3S2(=O)=O)c1` [1BNN], the “ΔG, kcal/mol (free energy of ligand-protein binding)” value is listed as -14.2 kcal/mol. In the case of `N[C@@H](Cc1c[nH]cn1)C(=O)O` [1HSL], the “ΔG, kcal/mol (free energy of ligand-protein binding)” value is given as -9.8 kcal/mol. In the case of `CN[C@H]1CN(c2cccc(OC)c2)S(=O)(=O)c2sc(S(N)(=O)=O)cc21` [1BNM], the “ΔG, kcal/mol (free energy of ligand-protein binding)” value is listed as -14.2 kcal/mol. For `C[C@H]1O[C@@H](O)[C@H](O)[C@@H](O)[C@H]1O` [1APB], the “ΔG, kcal/mol (free energy of ligand-protein binding)” value is given as -7.8 kcal/mol. For `CCN[C@H]1CN(CCOC)S(=O)(=O)c2sc(S(N)(=O)=O)cc21` [1BNQ], the “ΔG, kcal/mol (free energy of ligand-protein binding)” value is listed as -13.5 kcal/mol. In the case of `CC(=O)N[C@H]1[C@H]([C@H](O)[C@H](O)CO)OC(C(=O)O)=C[C@@H]1O` [2QWC], the “ΔG, kcal/mol (free energy of ligand-protein binding)” value is given as -4.8 kcal/mol. For `O=P(O)(O)OC[C@@H](O)CO` [6TIM], the “ΔG, kcal/mol (free energy of ligand-protein binding)” value is listed as -4.4 kcal/mol. For `CC(=O)N[C@H]1[C@H]([C@H](O)[C@H](O)CO)OC(C(=O)O)=C[C@@H]1N=C(N)N` [2QWE], the “ΔG, kcal/mol (free energy of ligand-protein binding)” value is listed as -10.2 kcal/mol. For `CC(=O)N[C@H]1[C@H]([C@@H](O)[C@@H](O)CO)O[C@@](O)(C(=O)O)C[C@@H]1O` [1NSC], the “ΔG, kcal/mol (free energy of ligand-protein binding)” value is given as -4.1 kcal/mol. For `CC(C)C[C@H](NP(=O)(O)O)C(N)=O` [2TMN], the “ΔG, kcal/mol (free energy of ligand-protein binding)” value is listed as -8 kcal/mol. In the case of `OC[C@H]1O[C@@H](O)[C@H](O)[C@@H]1O` [2DRI], the “ΔG, kcal/mol (free energy of ligand-protein binding)” value is listed as -8.9 kcal/mol. For `Nc1nc(=O)c2nc(CNc3ccc(C(=O)N[C@@H](CCC(=O)O)C(=O)O)cc3)cnc2[nH]1` [1DHF], the “ΔG, kcal/mol (free energy of ligand-protein binding)” value is given as -10.1 kcal/mol. In the case of `NS(=O)(=O)c1ccc(S(=O)(=O)NCc2cccs2)s1` [1BNW], the “ΔG, kcal/mol (free energy of ligand-protein binding)” value is listed as -12.9 kcal/mol. For `CCN[C@H]1C[C@H](C)S(=O)(=O)c2sc(S(N)(=O)=O)cc21` [1CIL], the “ΔG, kcal/mol (free energy of ligand-protein binding)” value is given as -12.9 kcal/mol. In the case of `O=C(O)[C@@H](O)Cc1ccccc1` [2CTC], the “ΔG, kcal/mol (free energy of ligand-protein binding)” value is given as -5.3 kcal/mol. In the case of `O=C(O)C[C@H](NC(=O)CP(=O)(O)O)C(=O)O` [8ATC], the “ΔG, kcal/mol (free energy of ligand-protein binding)” value is listed as -10.3 kcal/mol. For `Nc1nc2c(ncn2[C@@H]2O[C@H](CO)[C@@H](O)[C@H]2OP(=O)(O)O)c(=O)[nH]1` [1RNT], the “ΔG, kcal/mol (free energy of ligand-protein binding)” value is listed as -7.1 kcal/mol. In the case of `NCCCc1ccccc1` [1TNK], the “ΔG, kcal/mol (free energy of ligand-protein binding)” value is given as -2 kcal/mol. For `OC[C@H]1O[C@H](O)[C@H](O)[C@@H](O)[C@H]1O` [8ABP], the “ΔG, kcal/mol (free energy of ligand-protein binding)” value is given as -10.7 kcal/mol. In the case of `N=C(N)c1ccccc1` [3PTB], the “ΔG, kcal/mol (free energy of ligand-protein binding)” value is given as -6.3 kcal/mol. For `OC[C@H]1O[C@@H](O)[C@H](O)[C@@H](O)[C@@H]1O` [2GBP], the “ΔG, kcal/mol (free energy of ligand-protein binding)” value is listed as -10.2 kcal/mol. For `O[C@@H]1[C@@H](O)[C@@H](O)OC[C@@H]1O` [1BAP], the “ΔG, kcal/mol (free energy of ligand-protein binding)” value is listed as -9.3 kcal/mol. In the case of `NCCCCc1ccccc1` [1TNI], the “ΔG, kcal/mol (free energy of ligand-protein binding)” value is listed as -2.3 kcal/mol. In the case of `NCCc1ccccc1` [1TNJ], the “ΔG, kcal/mol (free energy of ligand-protein binding)” value is listed as -2.7 kcal/mol. In the case of `CN[C@H]1C[C@H](C)S(=O)(=O)c2sc(S(N)(=O)=O)cc21` [1CIN], the “ΔG, kcal/mol (free energy of ligand-protein binding)” value is listed as -11.9 kcal/mol. In the case of `CC1=C(/C=C/C(C)=C/C=C/C(C)=C/CO)C(C)(C)CCC1` [1BRP], the “ΔG, kcal/mol (free energy of ligand-protein binding)” value is listed as -9.3 kcal/mol. In the case of `C[C@H]1O[C@H](O)[C@H](O)[C@@H](O)[C@H]1O` [1ABF], the “ΔG, kcal/mol (free energy of ligand-protein binding)” value is given as -7.3 kcal/mol. For `CC(=O)N[C@H]1[C@H]([C@H](O)[C@H](O)CO)OC(C(=O)O)=C[C@@H]1N` [2QWD], the “ΔG, kcal/mol (free energy of ligand-protein binding)” value is given as -6.6 kcal/mol. For `NS(=O)(=O)c1cc2c(s1)S(=O)(=O)N(Cc1cccs1)C[C@@H]2O` [1BNU], the “ΔG, kcal/mol (free energy of ligand-protein binding)” value is listed as -13.8 kcal/mol. For `CC(=O)[C@H]1CC[C@H]2[C@@H]3CC[C@H]4C[C@@H](OC(=O)CCC(=O)O)CC[C@]4(C)[C@H]3CC[C@]12C` [2DBL], the “ΔG, kcal/mol (free energy of ligand-protein binding)” value is listed as -11.9 kcal/mol. In the case of `O=C(COP(=O)(O)O)NO` [7TIM], the “ΔG, kcal/mol (free energy of ligand-protein binding)” value is listed as -7.4 kcal/mol. For `CC(=O)N[C@H]1[C@H]([C@H](O)[C@H](O)CO)O[C@@](O)(C(=O)O)C[C@@H]1O` [2QWB], the “ΔG, kcal/mol (free energy of ligand-protein binding)” value is given as -3.7 kcal/mol. For `OC[C@H]1O[C@H](O)[C@H](O)[C@@H](O)[C@H]1O` [5ABP], the “ΔG, kcal/mol (free energy of ligand-protein binding)” value is given as -8.9 kcal/mol. In the case of `C[C@H](NC(=O)[C@@H](CS)Cc1ccccc1)C(=O)NCC(N)=O` [1JAO], the “ΔG, kcal/mol (free energy of ligand-protein binding)” value is listed as -8.1 kcal/mol. In the case of `N=C(N)c1ccccc1` [1DWB], the “ΔG, kcal/mol (free energy of ligand-protein binding)” value is given as -4 kcal/mol. For `O=C(O)[C@H](O)[C@@H](O)[C@H](O)[C@H](O)COP(=O)(O)O` [1PGP], the “ΔG, kcal/mol (free energy of ligand-protein binding)” value is given as -7.8 kcal/mol. In the case of `C[C@H]1C[C@H](N)c2cc(S(N)(=O)=O)sc2S1(=O)=O` [1CIM], the “ΔG, kcal/mol (free energy of ligand-protein binding)” value is listed as -12 kcal/mol. For `O[C@@H]1[C@@H](O)[C@@H](O)CO[C@H]1O` [1ABE], the “ΔG, kcal/mol (free energy of ligand-protein binding)” value is listed as -9.2 kcal/mol. For `COc1ccc(N2C[C@H](O)c3cc(S(N)(=O)=O)sc3S2(=O)=O)cc1` [1BNT], the “ΔG, kcal/mol (free energy of ligand-protein binding)” value is listed as -13.9 kcal/mol. In the case of `C[C@]12CCC(=O)C[C@H]1CC[C@@H]1[C@@H]2CC[C@]2(C)C(=O)CC[C@@H]12` [1DBK], the “ΔG, kcal/mol (free energy of ligand-protein binding)” value is given as -11 kcal/mol. In the case of `CC1=C(/C=C/C(C)=C/C=C/C(C)=C/CO)C(C)(C)CCC1` [1RBP], the “ΔG, kcal/mol (free energy of ligand-protein binding)” value is listed as -9.2 kcal/mol. For `CNC(=O)[C@H](Cc1ccccc1)NC(=O)[C@@H](CC(=O)NO)CC(C)C` [1MNC], the “ΔG, kcal/mol (free energy of ligand-protein binding)” value is given as -12.6 kcal/mol. For `Cc1ccc(S(=O)(=O)N[C@@H](Cc2cccc(C(=N)N)c2)C(=O)N2CCCCC2)cc1` [1PPH], the “ΔG, kcal/mol (free energy of ligand-protein binding)” value is given as -8.4 kcal/mol. For `CC(=O)N[C@H]1[C@H]([C@H](O)[C@H](O)CO)OC(C(=O)O)=C[C@@H]1O` [1NNB], the “ΔG, kcal/mol (free energy of ligand-protein binding)” value is listed as -7.2 kcal/mol. For `C[C@H]1O[C@H](O)[C@H](O)[C@@H](O)[C@H]1O` [7ABP], the “ΔG, kcal/mol (free energy of ligand-protein binding)” value is given as -8.7 kcal/mol. For `O=C(O)COP(=O)(O)O` [2YPI], the “ΔG, kcal/mol (free energy of ligand-protein binding)” value is listed as -6.6 kcal/mol.
